Results published in patent US5149717A, “Alkanophenones useful for treating allergies” (Ciba-Geigy Corporation, priority 1988, dated 1992).
Counter-ions that a name gives are not always drawn.

Columns and labels:
[1] = target: phospholipase A2 obtained from human leucocytes; test: In vitro test to determine the inhibition of phospholipase A2 obtained from human leucocytes; format: biochemical; conditions: under the described test conditions
Description: Neutrophilic polymorpho-nuclear human leucocytes are isolated from "Buffy coats" by multi-step fractional sedimentation and are deep-frozen. The phospholipase A2 is extracted from the cell suspension by homogenisation with the addition of ice-cold 0.36N H2 SO4 in 2N NaCl and the supernatant obtained after centrifugation at 10,000×g is dialysed against sodium acetate buffer pH 4.5.
In order to determine the enzyme activity, enzyme (10-30 μg of protein) is incubated at 37° for 1 hour in 0.1M tris/HCl buffer pH 7 with the addition of 1 mmol of CaCl2 and substrate consisting of phospholipids (2 μm) of Escherichia coli radioactively labelled biosynthetically with ^14 C-oleic acid. The reaction is stopped by the addition of Dole reagent (isopropanol/heptane/1N H2 SO4 40:10:1, v/v) and the ^14 C-oleic acid freed selectively by phospholipase A2 is extracted. […]
In order to detect an inhibitory action of test substances on phospholipase A2, the test substances are added to the incubation mixture in the form of solutions in water, dimethyl sulfoxide (final concentration in the batch up to 5%, v/v) or ethanol (final concentration in the batch up to 2.5%, v/v). […] The IC50 is determined graphically by plotting the percentage inhibition on the ordinate against the log of the concentration (μm) on the abscissa.

[2] = target: phospholipase C obtained from human thrombocytes; test: In vitro test to determine the inhibition of phospholipase C obtained from human thrombocytes; format: biochemical; conditions: under the described test conditions
Description: Human thrombocytes are obtained from "Buffy coats" by fractional centrifugation and are then deep-frozen. The phospholipase C is freed by ultrasound treatment of the cell suspension and after ultracentrifugation (150,000×g for 1 hour) is present in soluble form in the supernatant.
In order to determine the enzyme activity, enzyme (20-100 μg of protein) is incubated at 37° for 5 minutes in 0.025M tris/maleate buffer pH 6 with the addition of 0.2 mmol of CaCl2 and 0.02 mmol of radioactively labelled substrate, phosphatidyl-[^14 C]-inositol. The reaction is stopped by shaking with CHCl3 /CH3 OH 2:1 (v/v), in the course of which unused substrate is extracted into the organic phase, while the reaction product, ^14 C-inositol phosphate, remains in the aqueous phase and can be measured by radiometry of an aliquot.
In order to detect an inhibitory action of test substances on phospholipase C, the test substances are added to the incubation mixture in the form of solutions in water, dimethyl sulfoxide (final concentration in the batch up to 5%, v/v) or ethanol (final concentration in the batch up to 2.5%, v/v). […] The IC50 is determined graphically by plotting the percentage inhibition on the ordinate against the log of the concentration (μm) on the abscissa.

IC50 [1]: 1600 µM
IC50 [2]: 20 µM
SMILES: CCN(CC)CCCC(C)Nc1c2ccc(Cl)cc2nc2ccc(OC)cc12 (centres unmarked) [MEPACRINE, quinacrin hydrochloride]
